Measurements taken from patent US4701325A, “Injectable aqueous solution containing hydrogensulfite and/or sulfite and anticancerous benzodiazepine compound” (priority 1983, dated 1987).
Structures can show the parent of a compound that is named as a salt.

Columns and labels:
ddY strain mice = assay: Acute toxicity (LD50) in ddY strain mice; type: in vivo; conditions: i.v., mice; 10 times amount of NaHSO3
Procedure: (§1) The materials were administered to ddY strain mice (male, 18-20 g) intravenously to determine the LD50 (mg/Kg). […] Incidentally, NaHSO3 or Na2 SO 3 itself is a substance prescribed in Japanese Parmacopoeia and its safety has been established already.

[1] = test system: ear vein of white rabbits; assay: Tissue injury (edema ratio) after intravenous administration into the ear vein of rabbits for 5 days; type: in vivo; conditions: ear vein once a day for 5 days; measured 4 days after final administration; compound B 0.16 mg/Kg/day, NaHSO3 1.6 mg/Kg/day
Procedure: The same materials as those in Example 1 were used to determine the effect thereof administered to white rabbits (male, 2.0-2.3 kg) in groups of four in the ear vein once a day for consective 5 days. The material adminitered to the respective groups was (1) physiological saline, or (2) 0.16 mg of the compound B/Kg/day, (3) 0.16 mg of the compound B+1.6 mg of NaHSO3 /Kg/day or (4) 1.6 mg of NaHSO3 /Kg/day. The solution volumes to be administered were all fixed at 0.5 ml/Kg/day which contains respective material or materials in the above dosage.
For confirmation of the effect, the appearance was observed and the thickness at the administration site was measured 4 days after the final administration to serve as the index of tissue injury.
The edema ratio was determined according to the following equation. [formula]

[2] = Acute toxicity (LD50) in ddY strain mice; type: in vivo; conditions: mouse, in vivo, iv, male ddY mice 18-20 g; combination with 10 times amount of NaHSO3
Procedure: as §1

[3] = Stability of compound B in aqueous solution of NaHSO3 or Na2SO3 by HPLC; type: physicochemical; conditions: 3 hours at room temperature, 0.2 mg/ml compound B, Sample: with 2.0 mg/ml NaHSO3 or Na2SO3, read-out: Ratio of remaining compound B
Procedure: It was confirmed that the stability of the compound B was not affected when an aqueous solution of NaHSO3 or Na2 SO3 was used as the dissolving medium of the compound B. In a sample of 10 ml of an aqueous solution containing 0.2 mg of the compound B and 2.0 mg of NaHSO3 or Na2 SO3 in 1 ml thereof, analysis was made on high-performance liquid chromatography just after dissolving the compound B and after standing the solution for 3 hours at room temperature, to examine the stability of the compound B. The results are as shown in Table 3.

p 388 leukemia = assay: Antitumor activity in p 388 leukemia cancer-bearing BDF1 mice; type: in vivo; conditions: i.v. once a day for 4 days, compound B 2 mg/Kg/day, NaHSO3 or Na2SO3 20 mg/kg/day
Procedure: By the comparative examintion of mean survival days of the mice, index of life saving was calculated by the equation below: [formula]

SMILES	Effect on acute toxicity of the compound B (in words) (ddY strain mice)	Edema ratio (%) [1]	LD50 [2]	remaining at 3 h [3]	Mean survival day (p 388 leukemia; control 10 days)	Index of life saving (%) (p 388 leukemia; relative to physiological saline)
O=S([O-])O.[Na+] [NaHSO3, sodium hydrogensulfite, reference compound]	did not affect the acute toxicity of the compound B at all	0.0%				
Cc1ccc2c(c1O)NC(S(=O)O)C1CC(/C=C/C(N)=O)=CN1C2=O (stereo not shown) [Compound B, sodium salt of 5,10,11,11a-terahydro-9-hydroxy-8-methyl-5-oxo-11-sulfino-1H-pyrrolo[2,1-c][1,4]benzodiazepin-2-acrylamide]		169.4%	6.23 mg/kg	100%	18.0 days	80%
